In paper PMC12259270, “Sensory neuron–expressed FGF13 controls nociceptive signaling in diabetic neuropathy models” (The Journal of Clinical Investigation, 2025):
Where “and” joins values, the source holds several entries; their conditions need not be identical. Equal entries are not always repeated. Residues, ends and D or L forms follow the SMILES beside them. *: point of attachment. Cbz = O=C(OCc1ccccc1)*; NHPh = c1ccc(N*)cc1; OtBu = CC(C)(C)O*

Experiments:
[1] = molecular target: T1, FGF13R110A/Nav1.7 complex (Homo sapiens, UniProt Q15858+Q92913, R110A); experiment: LCA, CLuc-FGF13R110A/CD4-Nav1.7-CTD-NLuc; format: cell-based; details: for activity against the FGF13R110A/Nav1.7 complex: LCA, PW164 20 μM, ZL192 50 μM
T1 construct: Full-length FGF13-1b (aa 1-192) was subcloned into appropriate plasmids; Nav1.7 residues 1780-1977; expressed in transfected cells; host or cells: HEK293 (inferred; the LCA paragraph only says 'cells')
T1 sequence (Q92913 1-192 isoform Q92913-2 R57A): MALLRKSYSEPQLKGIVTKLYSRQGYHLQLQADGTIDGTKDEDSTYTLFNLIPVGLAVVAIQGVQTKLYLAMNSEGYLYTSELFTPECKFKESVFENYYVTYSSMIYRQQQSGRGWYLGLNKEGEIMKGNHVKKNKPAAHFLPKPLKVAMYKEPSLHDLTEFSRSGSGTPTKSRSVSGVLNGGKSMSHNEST
T1 sequence (Q15858 1791-1988): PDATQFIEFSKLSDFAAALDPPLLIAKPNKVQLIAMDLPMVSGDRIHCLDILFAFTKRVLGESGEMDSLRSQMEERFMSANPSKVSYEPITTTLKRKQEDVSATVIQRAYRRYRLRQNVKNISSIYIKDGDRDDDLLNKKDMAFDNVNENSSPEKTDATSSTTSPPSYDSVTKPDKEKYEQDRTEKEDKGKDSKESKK
Text: (§1) The respective gene ID numbers used in this study are as follows: NM_033642 (human, FGF13-1b) and NM_002977 (human SCN9A). Full-length FGF13-1b (aa 1-192) was subcloned into appropriate plasmids for use in this investigation, unless otherwise noted. For consistency with AlphaFold modeling presented, numbering of point mutations to FGF13-1b are based on the longest FGF13 isoform (FGF13-1a, NM_004114.2). CLuc-FGF13, […]
(§2) and constructs expressing the CLuc or the NLuc fragments of Firefly ( Photinus pyralis) luciferase (24) respectively were engineered, mutated (CLuc-FGF13R110A) and sequenced at the Molecular Genomics Core (University of Texas Medical Branch). The CD4 -Nav1.7-CTD-NLuc cassette was synthesized from GeneArt (Nav1.7 residues 1780-1977) (ThermoFisher) and subcloned at 5'-HindIII and 3’-BsiWi restriction sites in pcDNA3.1 (Invitrogen). Additionally, FGF13 was amplified with polymerase chain reaction (PCR) by using gene-specific primers, and subcloned in pcDNA3.1 at 5’ -BsiWi and 3’-Not I restriction sites. […]
(§3) Cell Culture and transfections
(§4) HEK293 cells were purchased from ATCC (catalog # CRL-1573). Cells were cultured and incubated at 37 °C with 5% CO2 in medium with equal volumes of Dulbecco modified essential medium (DMEM) and F12 […]
(§5) Split-luciferase Complementation Assay (LCA)
(§6) Twenty-four hours post transfection, cells were trypsinized using TrypLE (Gibco; cat # 12604013), centrifuged at 1750 rpm for 5 min, triturated in medium, and seeded into white clear-bottom 96-well CELLSTAR µClear® plates (Greiner Bio -One; cat # 655073 ) at ~0.8 x 10^5 cells per well in 200 µl of medium. The cells were incubated for another 24 hours, and then the growth medium was replaced with 100 µl serum -free, phenol red -free DMEM/F-12 medium (Invitrogen). All compounds from the PW - and the ZL-series, including PW164 and ZL192, were dissolved in DMSO, added to a final concentration of 1 –500 μM (0.5 % DMSO) in the serum -free medium and then cells were incubated for two hours. The bioluminescence reaction was initiated by injection of 100 μl of D -luciferin substrate (1.5 mg/ml dissolved in PBS) using a Synergy H4 multimode microplate reader (BioTek). Luminescence readings were initiated after 3 s of mild plate shaking and performed at 2 min intervals for 20-30 min with integration times of 0.5 s, and the c ells were maintained throughout the measurements at 37 °C. Raw signal intensity was computed by averaging peak luminescence plus two adjacent time points.
Normalized signal intensity was expressed as the percentage of mean signal intensity relative to per plate control wells treated with 0.5% DMSO.
Surface plasmon resonance (SPR)
All SPR experiments were performed on a Biacore T100 (GE Healthcare). Biotin-Nav1.7-CTD peptide […]

[2] = molecular target: T2, FGF13/Nav1.7 CTD complex (Homo sapiens, UniProt Q92913); experiment: Split-luciferase complementation assay (LCA), CLuc-FGF13/CD4-Nav1.7-CTD-NLuc; format: cell-based; parameters: key to LCA dose response, Mean (Figure 1B): % of mean signal of per-plate 0.5% DMSO control wells; details: for Percentage luminescence, Mean: Fig 1B dose response; for Luminescence signal over time, mean: FGF13, PW164
T2 construct: Full-length FGF13-1b (aa 1-192) was subcloned into appropriate plasmids; Nav1.7 residues 1780-1977; expressed in transfected cells; host or cells: HEK293 (inferred; the LCA paragraph only says 'cells')
T2 sequence (Q92913 1-192 isoform Q92913-2): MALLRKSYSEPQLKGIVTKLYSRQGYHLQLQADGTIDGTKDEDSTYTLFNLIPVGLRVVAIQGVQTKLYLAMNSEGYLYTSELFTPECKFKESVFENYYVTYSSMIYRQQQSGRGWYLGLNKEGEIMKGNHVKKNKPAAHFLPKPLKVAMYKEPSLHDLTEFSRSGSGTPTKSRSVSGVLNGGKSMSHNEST
Text: as §1, §2, §3, §4, §5, §6
Normalized signal intensity was expressed as the percentage of mean signal intensity relative to per plate control wells treated with 0.5% DMSO. […]
The FGF13 was immobilized to the final 1 0050 RU, and Nav1.7 to the 10 or 1000 RU, and no protein was coupled to the control channel of the chip. For each compound, stock solution (50 mM) was serially diluted from 300 to 1 µM; the Nav1.7 -CTD peptide (1876 -1899, 23 amino acids, MW ~2.8 kDa) was se rially diluted from 150 to 1 nM in PBS-P+ (PBS supplemented 0.005% with tween 20). Samples were injected over the chip for 60 s followed by dissociation for 120 s at the flow rate 40 µl/min; finally, the chip was regenerated using the solution of 1.5 M NaCl, 3% DMSO for 180 s. The interaction of compound or un-conjugated Nav1.7 -CTD peptide with FGF13, as […]

COC(=O)[C@@H](NC(=O)[C@H](CCC(=O)OC(C)(C)C)NC(=O)[C@H](CC(C)C)NC(=O)[C@@H]1CCCN1C(=O)OCc1ccccc1)C(C)C [PW164] (Cbz-PLE(OtBu)V-OMe)
Percentage luminescence, single replicates ([1]; Fig 1B, FGF13R110A, PW164 (20 μM)): 93.615% and 94.3116% and 89.4358% and 83.8635% and 99.0481% and 84.8386% and 92.9185% and 91.1075% and 93.4757% and 87.3462% and 108.8%
activity against the FGF13R110A/Nav1.7 complex [1]: prevented PW164 binding
LCA screening of the PW-series compounds against the FGF13/Nav1.7 complex (Fig. S2C) ([2]; 50 μM, individual replicates, vehicle about 100): 52.9829 and 54.4974 and 52.792 and 43.8067 and 53.8102 and 54.3574 and 65.3028 and 53.9247
Percentage luminescence, Mean ([2]; Log (conc(M)) -3.6): 36.225%
Percentage luminescence, Mean ([2]; Log (conc(M)) -3.82): 36.175%
Percentage luminescence, Mean ([2]; Log (conc(M)) -4): 36.8%
Percentage luminescence, Mean ([2]; Log (conc(M)) -4.12): 37.575%
Percentage luminescence, Mean ([2]; Log (conc(M)) -4.22): 41.95%
Percentage luminescence, Mean ([2]; Log (conc(M)) -4.3): 49.1%
Percentage luminescence, Mean ([2]; Log (conc(M)) -4.4): 55.95%
Percentage luminescence, Mean ([2]; Log (conc(M)) -4.6): 72.975%
Percentage luminescence, Mean ([2]; Log (conc(M)) -4.7): 78.7625%
Percentage luminescence, Mean ([2]; Log (conc(M)) -4.82): 95.2%
Percentage luminescence, Mean ([2]; Log (conc(M)) -5): 102.25%
Percentage luminescence, Mean ([2]; Log (conc(M)) -5.5): 98.45%
Percentage luminescence, Mean ([2]; Log (conc(M)) -6): 97.8125%
Luminescence signal over time, mean ([2]; Fig 1B, Time 0): 229.9
Luminescence signal over time, mean ([2]; Fig 1B, Time 5): 547.2
Luminescence signal over time, mean ([2]; Fig 1B, Time 10): 954.8
Luminescence signal over time, mean ([2]; Fig 1B, Time 15): 1153.7
Percentage luminescence, single replicates ([2]; Fig 1B, FGF13, PW164 (20 μM)): 42.7306% and 39.5799% and 34.1155% and 47.555% and 46.8165% and 80.4398% and 35.0509% and 53.5117% and 52.6748% and 30.1772% and 36.3308%
LCA analysis of FGF13/Nav1.7 ([2]; Figure 8D, WT PW164, replicate values beside WT DMSO): 48.4338 and 51.009 and 48.3348 and 45.8586 and 44.3729 and 45.9577 and 44.0758 and 49.7469 and 51.824 and 46.8389 and 47.9813
IC50 ([2]; LCA dose response, Fig 1B, read-out: IC50, inhibition of FGF13/Nav1.7 complex assembly): 29 ± 5 µM

CC(=O)N[C@@H](Cc1ccccc1)C(=O)N[C@@H](CC(C)C)C(=O)N1CCC[C@H]1C(=O)N[C@@H](CCCCN)C(=O)Nc1ccccc1 [ZL192] (Ac-FLPK-NHPh)
LCA signal, FGF13R110A (Figure 1B), individual replicates ([1]; FGF13R110A, ZL192 vs Vehicle): 170.87 and 102.219 and 90.2721 and 84.4389 and 144.478 and 146.648 and 93.2954 and 156.251 and 109.034 and 101.512 and 90.7701 and 115.348
activity against the FGF13R110A/Nav1.7 complex [1]: no agonist activity
LCA signal, FGF13 (Figure 1B), individual replicates ([2]; FGF13, ZL192 vs Vehicle): 148.142 and 186.697 and 151.094 and 172.833 and 154.782 and 172.987 and 159.506 and 193.88 and 161.695 and 170.692 and 150.24 and 163.294
EC50 ([2]; LCA dose-response, Fig 4B, read-out: EC50, increase of FGF13/Nav1.7 complex assembly): 28 ± 5 µM
LCA dose response, Mean (Figure 1B) ([2]; Log (conc(M)) -3.6): 132.85
LCA dose response, Mean (Figure 1B) ([2]; Log (conc(M)) -3.82): 139.626
LCA dose response, Mean (Figure 1B) ([2]; Log (conc(M)) -4): 140.168
LCA dose response, Mean (Figure 1B) ([2]; Log (conc(M)) -4.12): 146.164
LCA dose response, Mean (Figure 1B) ([2]; Log (conc(M)) -4.22): 133.106
LCA dose response, Mean (Figure 1B) ([2]; Log (conc(M)) -4.3): 141.107
LCA dose response, Mean (Figure 1B) ([2]; Log (conc(M)) -4.4): 130.374
LCA dose response, Mean (Figure 1B) ([2]; Log (conc(M)) -4.6): 116.119
LCA dose response, Mean (Figure 1B) ([2]; Log (conc(M)) -4.7): 109.491
LCA dose response, Mean (Figure 1B) ([2]; Log (conc(M)) -4.82): 110.318
LCA dose response, Mean (Figure 1B) ([2]; Log (conc(M)) -5): 102.555
LCA dose response, Mean (Figure 1B) ([2]; Log (conc(M)) -5.5): 100.737
LCA dose response, Mean (Figure 1B) ([2]; Log (conc(M)) -6): 101.723
